Reference: patent publication US20230391868A1, “COMPOSITIONS FOR AND METHODS OF TREATING CANCER” (The George Washington University, priority 2022, published 2023)

Test system: A31A7 macrophages and BMDMs
Assay: Macrophage cell surface marker expression by flow cytometry
Assay type: cell-based, mouse
Protocol: Bone marrow-derived macrophages were isolated from the femurs and tibias of wild-type C57/Bl6, HDAC6 knockout (C57BL/6J-Hdac6em2Lutzy/J, 029318, Jackson Laboratory), or UBC-GFP (C57BL/6-Tg(UBC-GFP)30Scha/J, 004353, Jackson Laboratory). Isolated bone marrow cells were cultured in RPMI 1640 complete medium with 10% FBS, 1% NEAA, and 1% penicillin-streptomycin in 5% CO2 at 37° C. Medium was supplemented with murine recombinant M-CSF (20 ng/mL, 576404, Biolegend) to differentiate monocytes into macrophages. Three days after bone marrow isolation, undifferentiated and floating cells were washed with PBS and replaced with fresh RPMI media. A3.1A7 cells and BMDMs were pretreated with 5 μM of HDAC6 inhibitor NextA or vehicle prior to adding polarizing cytokines.
Macrophages were polarized to M1-like phenotype using 50 ng/mL of interferon gamma (IFNγ, 575306, Biolegend) and 100 ng/mL of bacterial lipopolysaccharide (LPS, L2880, Sigma Aldrich, St. Louis, MO) for 24 hours. To polarize macrophages towards the M2-like phenotype, macrophages were stimulated with 20 ng/mL of IL-4 (214-14, PeproTech) and 20 ng/mL of IL-13 (575904, Biolegend). THP1 monocytes were treated with 5 ng/mL of phorbol 12-myristate 13-acetate (PMA) to induce differentiation into macrophages. Once converted to macrophages, media was replaced to remove PMA prior to treatment and/or polarization. […]

## CCCCN(Cc1ccc(C(=O)NO)cc1)C(=O)Nc1ccccc1 [NextA, Nexturastat A]
A31A7 and BMDMs polarized to M1-like phenotypes, 5 μM (FIG. 1B)
  cell surface expression of CD80 and H2: upregulation
A31A7 cells and BMDMs, M2, 5 μM (FIG. 1D)
  CD206 surface expression: significantly downregulated
